We go through one compound from patent US20120039917A1, “IMMUNO[…]” (priority 2008, published 2012).

In data set [1] the test system is proliferating T cells. Briefly: PMET activity measured by WST-1/PMS reduction. It counts as cell-based. The conditions noted are these: Homo sapiens, T-cell, read-out: IC50 inhibition of PMET (WST-1/PMS reduction). As for the experimental part: (§1) Immediately prior to experiments, frozen PBMC were thawed, centrifuged at 1400 rpm in a Multifuge 3 s (Heraeus) for 4 min, washed in RPMI+10% FCS and resuspended in T cell medium (RPMI+10% FCS+10 μM 2-mercaptoethanol (Sigma), 1×glutamine, 1×non-essential amino acids (Gibco)) at 2×10^6 cells/mL. Cells (2×10^5) were activated by adding 10 μg/mL anti-CD3 and 5 μg/mL anti-CD28 and 20 U/mL IL-2 per well. Cells were incubated at 37° C. in a humidified incubator maintained at 5% CO2 for 4 to 5 days until large numbers of large spherical aggregates or “bursts” of lymphocytes were observed. Activated proliferating T cells were pooled from the wells for further experiments. Resting T cells were incubated for the same length of time but in the presence of 20 U/mL IL-2 only.
(§2) WST-1/PMS reduction rates were measured in a microplate format as described previously (Berridge and Tan, 1998). […] WST-1 reduction was measured in real time at 450 nm over 30-60 min in a BMG FLUOstar OPTIMA plate reader.
(§3) The effect of PXD on PMET (FIG. 1A) was investigated by measuring reduction of the cell impermeable tetrazolium dye, WST-1, in the presence of its obligate intermediate electron acceptor, 1 mPMS (WST-1/PMS reduction). […] The effect of PXD on proliferation (FIG. 1B) was determined by measuring intracellular reduction of the tetrazolium salt, MTT.
For orientation: Tetrazolium dyes change colour on reduction, which living cells bring about.

In data set [2] the test system is resting T cells. In words: PMET activity measured by WST-1/PMS reduction. The conditions noted are these: Homo sapiens, T-cell, read-out: IC50 inhibition of PMET (WST-1/PMS reduction). It counts as cell-based. As for the experimental part:
as §1, §2, §3

Data set [3] concerns proliferating T cells. In words: Apoptosis/viability by Annexin V/propidium iodide staining. It counts as cell-based. The conditions noted are these: Homo sapiens, T-cell. On the procedure: as §1
Cells were centrifuged at 1400 rpm in a Multifuge 3 s (Heraeus) for 4 min at room temperature, washed in phosphate buffered saline solution, pH 7.3 (PBS) and resuspended in Annexin V binding buffer. Small aliquots (0.5-1×10^6 cells) were transferred to 1.5 mL tubes and spun at 1400 rpm in a Multifuge 3 s (Heraeus) for 4 min. Most supernatant was removed and 5 μL PI and 5 μL FITC-labelled AV was added to the wet pellets which were vortexed. After 30 min in the dark on ice, 500 μl of AV binding buffer was added, the cells were centrifuged for 2 min at 1400 rpm, washed once with AV binding buffer and resuspended in 300 μL of AV binding buffer in FACS tubes. Staining was analyzed by flow cytometry using a Becton Dickinson Canto II FACS analyser using FlowJo (TreeStar) software.
The extent of apoptosis in resting and proliferating T cells was determined after 24 h exposure to 10 μM PXD (FIG. 2) by AV/PI staining. […] Resting T cells were not affected (FIG. 2D). The percentage of viable proliferating T cells dropped from 74% (FIG. 2F) to 51% after exposure to 10 μM PXD for 24 h (FIG. 2H), whilst the percentage of viable resting T cells was unaltered (FIGS. 2B and D).
In order to investigate whether cells need to be exposed continually to PXD for its effects to manifest, proliferating T cells were exposed to 10 μM PXD for different periods of time, washed cells twice in RPMI and incubated for a further 24 h in fresh T cell medium.

Data set [4] relates to responder T cells. Briefly: HLA-mismatched mixed lymphocyte reaction in the presence of PXD. The conditions noted are these: 10 μM PXD on day 0, analysed day 8. Format: cell-based, human. As for the experimental part: Mixed lymphocyte reactions were established using unrelated, HLA-mismatched healthy donor blood samples as donor/recipient pairs. Stimulator PBMC were γ-irradiated with 30 Gy as described previously (Zenhausen et al., 2007). Responder PBMC were washed twice in PBS, 5,6-carboxy-succinimidyl-fluorescein-ester (CSFE)-labelled (1.25 μM, Sigma) at room temperature for 5 minutes, and washed twice in PBS/10% FCS. Two hundred thousand stimulator and responder cells were added per well at a 1:1 ratio in a 96 U-well plate in T cell medium. Stimulator and responder cells were also plated alone, and all cells were cultured in a 5% CO2, 37° C. humidified incubator. Viability, CFSE fluorescence and cell surface antigen expression were determined by flow cytometry. Cells were washed twice in FACS buffer (PBS, 2% FCS), and resuspended in 50 μL/5×10^5 cells and analysed on a Becton Dickinson LSRII FACS analyser using FlowJo (TreeStar) software.
The ability of PXD to induce apoptosis in proliferating T cells was further tested in a HLA-mismatched MLR. CFSE labelled responder cells were mixed with HLA-mismatched γ-irradiated stimulator cells in the presence of 0.1% DMSO (control) and 10 μM PXD on day 0. Responder cells were analysed for proliferation (CFSEIO) and viability (AV^−) at day 8 to allow exposure of proliferating responder cells to the drug for several days.

Data set [5] relates to late stage solid cancer patients. The conditions noted are these: intravenous infusion, phase I; cited from earlier work.

Read-outs that look alike come from different tables or passages of the source. Some results are limits rather than exact numbers.

For the compound `Oc1ccc(C2=Cc3ccc(O)cc3OC2)cc1` [PXD, Isoflav-3-en-4′,7-diol], the IC50 is 46 µM in data set [1] and more than 200 µM in data set [2]. Moreover, the viability at 10 µM came out at 51% in data set [3] (24 h, 10 μM PXD for 24 h, control 74%, read-out: percentage of viable proliferating T cells (AV/PI)); 69 ± 4% in data set [3] (24 h, proliferating T cells, 10 μM PXD for 24 h, read-out: [% viable blasts after PXD exposure]/[% viable blasts after 0.1% DMSO exposure]); 70 ± 7.1% in data set [3] (PXD pre-incubated in 10% FCS, 10 μM final, relative to 0.1% DMSO, read-out: % Viable cells after exposure time 24 h); 64 ± 4.6% in data set [3] (PXD pre-incubated in 10% FCS, 10 μM final, then 24 h, relative to 0.1% DMSO, read-out: % Viable cells after exposure time 1 min); 60 ± 7.1% in data set [3] (PXD pre-incubated in 10% FCS, 10 μM final, then 24 h, relative to 0.1% DMSO, read-out: % Viable cells after exposure time 10 min); 69 ± 7.2% in data set [3] (PXD pre-incubated in 90% FCS, 10 μM final, relative to 0.1% DMSO, read-out: % Viable cells after exposure time 24 h). The viability at 10 µM was found to be 66 ± 4.2% in data set [3] (PXD pre-incubated in 90% FCS, 10 μM final, then 24 h, relative to 0.1% DMSO, read-out: % Viable cells after exposure time 1 min); 62 ± 5.7% in data set [3] (PXD pre-incubated in 90% FCS, 10 μM final, then 24 h, relative to 0.1% DMSO, read-out: % Viable cells after exposure time 10 min); 73.5 ± 9.2% in data set [3] (PXD pre-incubated in 90% Human Serum, 10 μM final, relative to 0.1% DMSO, read-out: % Viable cells after exposure time 24 h); 69 ± 4.4% in data set [3] (PXD pre-incubated in 90% Human Serum, 10 μM final, then 24 h, relative to 0.1% DMSO, read-out: % Viable cells after exposure time 1 min); 72 ± 7.3% in data set [3] (PXD pre-incubated in 90% Human Serum, 10 μM final, then 24 h, relative to 0.1% DMSO, read-out: % Viable cells after exposure time 10 min). In addition, the “resting responder cell population (CD3+CFSEhiAV−)” value in data set [4] was “present in both control and PXD treated MLR”. In data set [4] (control MLR 46.5%), the “proliferating allogeneic T cells (CD3+CFSloAV− population)” value is on record as 2%. Besides, the “stabilization of disease after treatment, some patients” value in data set [5] is given as “up to 6 months”. Besides, in data set [5], the “well tolerated dose with minor side effects” value was not above 30 mg/kg.
